From patent US20020155117A1, “METHOD FOR DETECTING ORGAN ALLOGRAFT REJECTION AND USES THEREOF” (priority 1996, published 2002)
Ends that are not written are not given here.

How the values were obtained:
Assay type in all cases: cell-based, human
TCL LZ-anti-pp 21-42 = test: Proliferation assay of TCL LZ-anti-pp 21-42; design: stimulation of TCL anti-pp 21-42 by overlapping 14-mer peptides: dose or concentration left out as unconfirmed
Procedure: (§1) FIGS. 1A and 1B. Reactivity of TCLs to the immunizing peptides and to r DR1 proteins. The TCL LZ-anti-pp 1-20 […] and TCL LZ-anti-pp 21-42 […] were tested for reactivity to various concentrations of rDR1 protein and pp 1-20 pr pp 21-42 using 2×10^4 responding cells and 5×10^4 irradiated autologous APCs per well. Cultures were labeled after 48 hours and harvested 18 hours later. Results are expressed as mean cpm of triplicate cultures. The standard deviation of measure was less than 10%.
(§2) FIGS. 2A and 2B. HLA-DR restriction of peptide recognition by TCLs. The TCL LZ-anti-pp 1-20 (FIG. 2A) and TCL LZ-anti-pp 21-42 (FIG. 2B) were stimulated with […] peptide (pp 1-20 for LZ-anti-pp 1-20 and pp 21-42 for LZ-anti-pp 21-42) in the presence of autologous and allogeneic APCs sharing with the responder one or no DR antigen. Assays were done as described in the description of FIGS. 1A and 1B.
FIG. 3. Determination of the core epitope of the dominant determinant of DR1 molecule. TCL LZ-anti-pp 21-42 was stimulated in individual cultures with nine overlapping 14-mer peptides ([…]) moving along residues 21-42 in single residue steps. The reactions were set up as described in the description of FIGS. 1A and 1B.
FIG. 4. Suppression of TCL reactivity by high concentrations of antigen. The proliferative response of TCL LZ-anti-pp 21-42 was tested as described in the description of FIGS. 1A and 1B using different concentrations of pp 22-35. The response was abolished at a concentration […].
(§3) T cells were grown in 24 well plates (Nunc, Inc., Naperville, Ill.) in RPM1 1640 medium supplemented with 10% human AB serum, […] L-glutamine, and 50 μg/ml gentamicin (Gibco, Grand Island, N.Y.). On day 10, rIL-2 was added at 5 μ/ml. Fourteen days after priming, T cells were collected, washed and restimulated at 10^6/ml with antigen, in culture medium containing rIL-2 (20 u/ml) and irradiated (3000 rad) autologous PBMCs (2×10^6/ml). Following three stimulations, two TCLs, named LZ-anti-pp1-20 and LZ-anti-pp21-42, were obtained.
(§4) Responding T cells (2×10^4/well) were cultured with irradiated APCs of responder or stimulator origin (5×10^4/well) in round bottom microtiter plates (Nunc Inc., Naperville, Ill.). Antigens were added to the cultures at the concentrations indicated. [^3H] thymidine (1 μCi/well) was added after 48 hours, and the cultures were harvested 18 hours later. [^3H] thymidine incorporation was measured in an LK Betaplate liquid scintillation counter (Wallace, Inc., Gaithersburg, Md.). Mean cpm in triplicate cultures and standard deviation of the mean were calculated.
The immune response of mature T cells can paradoxically be suppressed by high doses of antigen (Suzuki et al., 1988; and Critchfield et al, 1994). The possibility of suppressing indirect allorecognition was explored by testing the reactivity of TCL LZ-anti-pp 21-42 to increasing concentrations of pp 22-35 in the presence of autologous APC. The reactivity of the line started to decline when the concentration of the peptide was increased above 3 μM (FIG. 4).
(§5) T cells cultured with 27 μM of pp 22-35 lost viability (>90% Preputium iodide positive) within 72 hours, while T cells grown with high concentration of the irrelevant peptide alone were unaffected

[1] = tested on: IL-2 expanded PBMCs of DR11 positive heart allograft recipients; test: Limiting dilution analysis (LDA) of Th frequency in the periphery, Example 1; details: for T helper cell frequency, circulation: + self PBMC
Procedure: FIG. 6. Suppression of in vivo activated T cells by high doses of antigen. PBMCs obtained from patient […] on day 55 were expanded in IL-2 for 14 days and then tested in LDA (limiting dilution analysis) for reactivity to pp 22-35 at concentrations of […] in the presence of autologous APCs.
The LDA study of Th frequency in the periphery was performed using the method described by Zhang et al. (Zhang et al., 1994) with some modifications. PBMCs were plated at 2×10^4, 1×10^4 and 5×10^3 cells per well (24 wells for each concentration) in 0.1 ml medium containing 40 U/ml of rIL-2. On day 7, 0.1 ml fresh medium with rIL-2 was added to each well. After 14 days, each culture was split into 3 aliquots: one was cultured with autologous (patient) irradiated PBMC (5×10^4/well), the second with autologous PBMC plus pp 22-35, and the third with donor spleen cells (5×10^4/well). The cultures were pulsed with [^3H] thymidine ([…]) after 48 hours and harvested 18 hours later.
To establish whether the reactivity of in vivo activated T cells to peptide 22-35 can be suppressed by high concentrations of antigen the following experiment was performed: PBMC from […] were cultured for 14 days at different cell concentrations in medium with IL-2. Cultures were then tested in the presence of autologous APCs for reactivity to pp 22-35 at concentrations of 1 μM and 15 μM. At 1 μM of antigen there were 8×10^−6 reactive T cells while at 15 μM there was no reactivity (FIG. 6).

[2] = tested on: T cells infiltrating the graft; test: Limiting dilution analysis of Th frequency among lymphocytes infiltrating the graft, Example 1; details: patient three, + self PBMC
Text: Biopsy tissue was washed twice with medium supplemented with 5 u/ml rIL-2. Cell growth was checked everyday. The medium was changed twice a week. T cells infiltrating the graft were further expanded in medium with rIL-2 for 7-14 days. When the cell number reached 1×10^6, they were harvested and plated at 400, 200 and 100 cells per well in the presence of autologous PBMC (5×10^4/per well) in 24 replicate cultures. Cultures were maintained and assayed for reactivity as described above. The precursor frequency of Th cells recognizing pp 22-35 and donor spleen cells was analyzed by Poisson statistics (Liu et al., 1992; and Zhang et al., 1994).

[3] = tested on: PBMC from a responder (LZ), expressing HLA-DR β1*1101/1201; test: In vitro immunization of PBMC from responder LZ with DR1 peptides (blastogenesis with autologous APCs); details: peptide 5 μg/ml
Procedure: Development of Allo-peptide Specific T Cell Lines for Epitope Mapping. PBMCs (at 10^6/ml) from a healthy person ([…]) with HLA-DRβ1*1101/1201 genotype were primed in individual cultures (Liu et al., 1992) with each or the following seven DR1 peptides(5 μg/ml) spanning the first domain of the Drβ1*0101 chain:
as §3
To monitor indirect recognition in allograft recipients, a determination was made as to whether T cell recognize one or more peptides resulting from the processing of an allogeneic MHC molecule by responder APCs. For this, in vitro PBMC were immunized from a responder (LZ), expressing HLA-DR β1*1101/1201, with seven partially overlapping peptides corresponding to the first domain of the Drβ1*0101 molecule. […] The resulting T cell lines were tested for their ability to recognize native rDR1 molecule at various protein concentrations.

TCL LZ-anti-pp 1-20 = test: Proliferation assay of TCL LZ-anti-pp 1-20
Procedure: as §1
as §2, with “1B. […]” for “1B.”
as §4, with “Antigens were added to the cultures at the concentrations indicated. [^3H] thymidine (1 μCi/well) was added after 48 hours, and the cultures were harvested 18 hours later.” left out

[4] = tested on: TCL LZ-anti-pp 21-42 T cells; test: Viability of T cells cultured with high peptide concentration (Preputium iodide); details: high concentration of the irrelevant peptide alone
Procedure: as §5

TCL-PR = test: Proliferative response of TCL-PR to DR4 peptide
Text: The identification of the core epitope of the DR4/69-88 peptide has been accomplished. […] The peptide KRAAVDTYCRHNYG carries the expected anchor residues required by the peptide binding motif of the DTRβ1*1101 restriction molecule (i+7) as well as the TCR contact residues involved in the stimulation of TCL-PR.
The objective of these studies is to establish whether high doses of dominant peptide are tolerogenic. To increase resistance against enzymatic degradation D-Lysine is placed at the N-terminus and the C-terminus is amidated. We have established that the optimal dose of the dominant peptide (4/71-84) required for inducing maximal proliferation of TCR-PR is 5 μg/ml or approximately 5×10^−7M. Increasing concentration of peptide 4/71-84 (ranging from 10^−8 to 10^−4M) may be used to determine the dose required to reduce proliferation to the background values observed in cultures with APCs and no peptide. The viability of the cells will be assayed and physiological studies will be performed to determine whether the lack of proliferation results from the induction of enery of apoptosis.

In the case of “ERVRLLERCIYNQE [pp 22-35, ERVRLLERCIYNQE]”, the peptide concentration at which the proliferative response was abolished (TCL LZ-anti-pp 21-42; FIG. 4 legend) is reported as 27 µM, the “peptide concentration above which reactivity of the line started to decline” value (TCL LZ-anti-pp 21-42; autologous APC, FIG. 4) is reported as “above 3 μM” and the “peptide concentration for complete suppression of TCL reactivity” value (TCL LZ-anti-pp 21-42; autologous APC, FIG. 4) is reported as 27 µM. The “stimulation of TCL anti-pp 21-42 by overlapping 14-mer peptides” value (TCL LZ-anti-pp 21-42; autologous APCs, FIG. 3) was “stimulated strongly”, the “TCL-ZL response to pp 22-35” value (TCL LZ-anti-pp 21-42; pp 22-35) was 17×10^3 cpm and the “reactive T cells in LDA at low antigen concentration” value ([1]; patient PBMC (day 55), 1 μM of antigen, autologous APCs, FIG. 6) was 8×10^−6. For the same substance, the “reactive T cells in LDA at high antigen concentration” value ([1]; patient PBMC (day 55), 15 μM of antigen, autologous APCs, FIG. 6) was “no reactivity”, the “T helper cell frequency, circulation” value ([1]; patient one, 1 Mo after transplantation) was 0 and the “T helper cell frequency, circulation” value ([1]; patient one, 12 Mo after transplantation (chronic rejection)) was 6×10^−6. The “T helper cell frequency, circulation” value ([1]; patient one, 12 Mo after transplantation (chronic rejection), listed as pp22-35) was 6.0 × 10^−6, the “T helper cell frequency, circulation” value ([1]; patient three, 27 d after transplantation) was 0 and the “T helper cell frequency, circulation” value ([1]; patient three, 41 d after transplantation) was 7.4×10^−6. For the same substance, the “T helper cell frequency, circulation” value ([1]; patient three, 41 d after transplantation, listed as pp22-35) was 7.4 × 10^−6, the “T helper cell frequency, circulation” value ([1]; patient three, 55 d after transplantation (acute rejection), listed as pp22-35) was 8.0 × 10^−6 and the “T helper cell frequency, circulation” value ([1]; patient three, 55 d after transplantation (acute rejection), listed as pp-22-35) was 8×10^−6. For the same substance, the “T helper cell frequency, circulation” value ([1]; patient three, 82 d after transplantation (acute rejection), listed as pp22-35) was 6.5 × 10^−6, the T helper cell frequency, circulation ([1]; patient three, 82 d after transplantation (acute rejection), listed as pp-22-35) was 6.5e-06 and the “T helper cell frequency, circulation” value ([1]; patient two, 12 Mo after transplantation) was “failed to react”. For the same substance, the “T helper cell frequency, circulation” value ([1]; patient two, 12 Mo after transplantation, listed as pp22-35) was 0, the “T helper cell frequency, graft” value ([2]; 55 d biopsy) was 4.3×10^−4 and the “T helper cell frequency, graft” value ([2]; 55 d biopsy, listed as pp22-35) was 4.3 × 10^−4. The “T helper cell frequency, graft” value ([2]; 82 d biopsy) was 3.3×10^−4 and the “T helper cell frequency, graft” value ([2]; 82 d biopsy, listed as pp22-35) was 3.3 × 10^−4.
With “GDTRPRFLWQLKFECHFFNG (GDTRPRFLWQLKFECHFFNG) [pp 1-20, residues 1-20 of Drβ1*0101 chain]” the “blastogenesis after in vitro immunization of PBMC” value [3] was “elicited blastogenesis”, the “reactivity of TCL LZ-anti-pp 1-20” value (TCL LZ-anti-pp 1-20; autologous APCs, various concentrations, FIG. 1) was “stimulated strongly” and the “HLA-DR restriction of peptide recognition by TCL anti-pp 1-20” value (TCL LZ-anti-pp 1-20; autologous and allogeneic APCs, FIG. 2A) was “only when presented by APCs carrying the Drβ1*1101 allele”.
“K G N N D E S N I S F K E K D (KGNNDESNISFKEKD) [NDA4-derived peptide, irrelevant synthetic peptide corresponding to the N-terminus of the NDA4 molecule, reference compound]” was tested, and the “TCL-ZL response to pp 22-35 in the presence of irrelevant peptide” value (TCL LZ-anti-pp 21-42; pp 22-35 at plus NDA4-derived peptide at 30-50 μM) was 15-17×10^3 cpm and the “viability of T cells grown with peptide alone” value [4] was “unaffected”.
For “K R A A V D T Y C R H N Y G (KRAAVDTYCRHNYG) [4/71-84]”, the “optimal dose required for inducing maximal proliferation of TCR-PR” value (TCL-PR) was 5 μg/ml and approximately 5×10^−7 M and the “potency in stimulating the proliferative response of TCL-PR (core epitope of DR4/69-88)” value (TCL-PR) was “most potent”.
In the case of “TERVRLLERCIYNQEESVREDS (TERVRLLERCIYNQEESVREDS) [pp 21-42, residues 21-42 of Drβ1*0101 chain]”, the “blastogenesis after in vitro immunization of PBMC” value [3] is reported as “elicited blastogenesis”, the “reactivity of TCL LZ-anti-pp 21-42” value (TCL LZ-anti-pp 21-42; autologous APCs, various concentrations, FIG. 1B) is reported as “reacted vigorously” and the “HLA-DR restriction of peptide recognition by TCL anti-pp 21-42” value (TCL LZ-anti-pp 21-42; autologous and allogeneic APCs, FIG. 2B) is reported as “only when presented by APCs carrying the Drβ1*1101 allele”.
